In patent US20050096360A1, “Inhibitors of semicarbazide-sensitive amine oxidase (SSAO) and VAP-1 mediated adhesion useful for treatment of diseases” (priority 2003, published 2005):
pIC50: −log10 of the molar value. Counter-ions that a name gives are not always drawn. Like-named read-outs stand apart in the source and are kept apart here.

Assays:
[1] = target: T1, recombinant human MAO-B (Homo sapiens, UniProt P27338); assay: Inhibition of MAO-B activity, colorimetric; type: biochemical; settings: for Specificity for SSAO vs. MAO-B: ratio IC50 MAO-B to IC50 SSAO
T1 construct: purchased BD Biosciences (MA, USA)
T1 sequence (P27338 1-520): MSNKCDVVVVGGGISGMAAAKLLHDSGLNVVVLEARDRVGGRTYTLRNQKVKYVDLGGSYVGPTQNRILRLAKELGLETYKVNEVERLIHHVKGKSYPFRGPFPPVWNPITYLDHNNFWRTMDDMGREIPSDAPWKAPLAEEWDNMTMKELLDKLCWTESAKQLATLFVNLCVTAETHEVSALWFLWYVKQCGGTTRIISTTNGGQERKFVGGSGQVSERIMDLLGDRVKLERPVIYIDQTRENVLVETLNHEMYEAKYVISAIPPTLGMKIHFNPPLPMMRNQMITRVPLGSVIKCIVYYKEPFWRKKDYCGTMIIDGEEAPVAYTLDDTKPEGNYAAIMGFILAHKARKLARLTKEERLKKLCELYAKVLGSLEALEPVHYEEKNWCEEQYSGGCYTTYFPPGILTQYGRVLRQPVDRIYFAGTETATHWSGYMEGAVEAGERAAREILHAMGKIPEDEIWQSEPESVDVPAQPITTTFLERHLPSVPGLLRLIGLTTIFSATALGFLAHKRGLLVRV
Experimental: (§1) The specificity of the different SSAO inhibitors was tested by determining their ability to inhibit MAO-A and MAO-B activities in vitro. Recombinant human MAO-A and human MAO-B enzymes were obtained from BD Biosciences (MA, USA). […] A pre-determined amount of inhibitor diluted in 0.2 M potassium phosphate buffer, pH 7.6, was added to each well, if required. […] Controls lacked inhibitor. The following agents were then added to a final reaction volume of 200 μl in 0.2 M potassium phosphate buffer, pH 7.6: 0.04 mg/ml of MAO-A or 0.07 mg/ml MAO-B enzyme, 15 μl of 10 mM tyramine substrate (for MAO-A), or 15 μl 100 mM benzylamine substrate (for MAO-B), and 50 μl of freshly made chromogenic solution (as above). The plates were incubated for 60 min at 37° C. The increase in absorbance, reflecting MAO activity, was measured at 490 nm using microplate spectrophotometer (Power Wave 40, Bio-Tek Inst.). Inhibition was presented as percent inhibition compared to control after correcting for background absorbance and IC50 values calculated using GraphPad Prism software.

[2] = target: T2, recombinant human MAO-A (Homo sapiens, UniProt P21397); assay: Inhibition of MAO-A activity, colorimetric; type: biochemical; settings: for Specificity for SSAO vs. MAO-A: ratio IC50 MAO-A to IC50 SSAO
T2 construct: purchased BD Biosciences (MA, USA)
T2 sequence (P21397 1-527): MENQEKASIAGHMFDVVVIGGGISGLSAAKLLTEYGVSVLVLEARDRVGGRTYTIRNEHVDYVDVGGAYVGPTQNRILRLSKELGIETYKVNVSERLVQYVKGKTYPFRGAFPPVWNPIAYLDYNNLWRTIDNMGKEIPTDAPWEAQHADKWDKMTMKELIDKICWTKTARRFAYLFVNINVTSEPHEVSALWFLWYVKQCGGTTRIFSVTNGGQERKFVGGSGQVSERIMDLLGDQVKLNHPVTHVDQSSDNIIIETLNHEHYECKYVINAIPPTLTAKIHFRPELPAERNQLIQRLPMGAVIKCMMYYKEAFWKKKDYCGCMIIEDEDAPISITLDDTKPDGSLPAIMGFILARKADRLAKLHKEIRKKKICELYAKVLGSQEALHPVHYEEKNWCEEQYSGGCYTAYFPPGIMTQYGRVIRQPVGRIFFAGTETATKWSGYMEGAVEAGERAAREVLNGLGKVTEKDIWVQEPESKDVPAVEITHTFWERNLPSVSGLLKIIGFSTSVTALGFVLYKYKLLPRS
Experimental: as §1

[3] = in vivo
[4] = tyramine substrate, no pre-incubation, read-out: MAO-A Inhibitory Activity IC50

| Compound | pIC50 [1] | Specificity for SSAO vs. MAO-B [1] | pIC50 [2] | Specificity for SSAO vs. MAO-A [2] | bioavailability after intravenous and intraperitoneal administration [3] | pIC50 [2, 4] |
| --- | --- | --- | --- | --- | --- | --- |
| C=C(CNN)c1ccccc1 [Example 2, Hydrochloride] | 4.00 | 2,900 | 3.65 | 6,400 | readily bioavailable |  |
| C=C(CNN)c1ccc(F)cc1.Cl [Example 8, N-[2-(4′-fluorophenyl)-allyl]-hydrazine Hydrochloride] | 4.09 | 2,500 |  | 69 | readily bioavailable | 5.66 |
| Cl.NNC/C(=C/F)c1ccccc1 [Example 10, (E)-1-fluoro-2-phenyl-3-hydrazinopropene Hydrochloride] | 6.19 | 10 |  | 43 | readily bioavailable | 5.55 |
